In patent US20170210751A1, “PRMT5 INHIBITORS AND USES THEREOF” (Epizyme, Inc., priority 2014, published 2017) one finds EC50 and IC50 data, which are given here for 20 molecules.

A value given as a limit tells only on which side of the number the result lay.

In one assay the test system is Z-138 cell line. The experiment in a line: Z-138 Proliferation Assay (Cell Titer Glo). Format: cell-based. The note with it: Homo sapiens, 120 h; Z-138 cells, 5 days incubation, ATP (Cell Titer Glo). A digest of the protocol:
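Z-138 cells in RPMI with 10% FBS exposed 5 days at 37 °C to nine-point 3-fold dilutions, top 20 μM final, 0.2% DMSO, triplicate. ATP-based CellTiter-Glo luminescence; IC50 from 4-parameter fit of normalized curves.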
A general note: ATP-based viability assays read luminescence as a measure of living cells.

Another assay deals with T1, PRMT5/MEP50 (Homo sapiens, UniProt O14744).
T1 construct: Flag-PRMT5; made in house; host or cells: Spodoptera frugiperda (SF9) insect cells, baculovirus (pDEST8)
T1 sequence (O14744 with tags, fused parts or gaps): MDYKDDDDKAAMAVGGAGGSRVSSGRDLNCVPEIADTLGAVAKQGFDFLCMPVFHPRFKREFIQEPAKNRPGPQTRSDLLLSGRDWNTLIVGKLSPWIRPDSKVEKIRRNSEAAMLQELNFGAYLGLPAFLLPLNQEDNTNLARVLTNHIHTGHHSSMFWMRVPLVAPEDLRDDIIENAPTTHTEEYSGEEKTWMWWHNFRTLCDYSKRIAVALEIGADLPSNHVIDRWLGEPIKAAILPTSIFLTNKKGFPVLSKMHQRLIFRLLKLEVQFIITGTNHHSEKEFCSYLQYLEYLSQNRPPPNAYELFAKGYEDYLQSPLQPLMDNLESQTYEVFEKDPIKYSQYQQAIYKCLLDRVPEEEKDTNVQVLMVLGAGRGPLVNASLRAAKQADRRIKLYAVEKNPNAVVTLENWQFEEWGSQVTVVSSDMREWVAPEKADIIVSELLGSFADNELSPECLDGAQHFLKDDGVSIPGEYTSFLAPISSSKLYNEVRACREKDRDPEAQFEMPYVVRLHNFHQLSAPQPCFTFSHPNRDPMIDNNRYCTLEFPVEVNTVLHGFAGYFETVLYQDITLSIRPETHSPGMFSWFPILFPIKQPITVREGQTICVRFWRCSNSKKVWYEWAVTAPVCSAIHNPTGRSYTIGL
T1 sequence (Q9BQA1 with tags, fused parts or gaps partner limits assumed): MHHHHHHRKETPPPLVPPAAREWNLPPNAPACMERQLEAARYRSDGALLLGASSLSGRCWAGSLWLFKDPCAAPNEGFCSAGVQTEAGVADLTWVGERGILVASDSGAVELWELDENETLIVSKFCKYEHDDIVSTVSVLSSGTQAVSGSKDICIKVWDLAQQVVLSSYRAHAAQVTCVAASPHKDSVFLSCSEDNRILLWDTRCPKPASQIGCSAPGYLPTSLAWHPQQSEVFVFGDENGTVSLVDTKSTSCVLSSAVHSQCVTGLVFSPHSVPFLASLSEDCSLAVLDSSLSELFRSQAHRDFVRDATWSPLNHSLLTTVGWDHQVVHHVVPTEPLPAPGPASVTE
The assay is described as follows: PRMT5 Biochemical Assay (PRMT5/MEP50 enzyme assay on peptide substrate, 3H-SAM Flashplate). The conditions noted are these: PRMT5/MEP50 4 nM, 3H-SAM 75 nM, peptide 40 nM, 30 min preincubation at 25 degrees Celsius. A digest of the protocol:
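FLAG-PRMT5/His-MEP50 from Sf9 cells (4 nM) preincubated 30 min at 25 °C with compounds, then reacted with 75 nM 3H-SAM and 40 nM biotinylated histone H4 1-15 peptide in Bicine pH 7.6, 1% DMSO. Stopped with 600 uM cold SAM; streptavidin Flashplate capture, scintillation counts; % inhibition fitted to 3- or 4-parameter curve.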

What is called EC50 is the concentration needed to bring the measured effect to its halfway point. A high value points to a need for much substance. The term IC50 denotes the concentration that inhibits the measured activity by half. The molecule `CC(=O)N1CC(Nc2cc(C(=O)NC[C@H](O)CN3CCc4c(ncn4C)C3)ncn2)C1` [Compound 3-45] displayed an EC50 in the assay with Z-138 cell line of more than 5 µM. Further, on PRMT5/MEP50, the IC50 is more than 10 µM.
In turn, `CC(=O)N1CC(Nc2cc(C(=O)NC[C@H](O)CN3CCc4cn[nH]c4C3)ncn2)C1` [Compound 3-44] yielded an EC50 with Z-138 cell line of more than 5 µM. Also, the half-maximal inhibitory concentration (IC50) at PRMT5/MEP50 was more than 10 µM.
`Cc1nc2c(o1)CCN(C[C@@H](O)CNC(=O)c1cc(NC3COC3)ncn1)C2` [Compound 4-1, (S)—N-(2-hydroxy-3-(2-methyl-6,7-dihydrooxazolo[4,5-c]pyridin-5(4H)-yl)propyl)-6-(oxetan-3-ylamino)pyrimidine-4-carboxamide] registered an EC50 in the assay on Z-138 cell line of more than 5 µM. For the same molecule, the IC50 on PRMT5/MEP50 is more than 10 µM.
In turn, `CC(=O)N1CCC(Nc2cc(C(=O)NC[C@H](O)CN3CCc4cccnc4C3)ncn2)CC1` [Compound 2-11, (S)-6-((1-acetylpiperidin-4-yl)amino)-N-(3-(5,6-dihydro-1,7-naphthyridin-7(8H)-yl)-2-hydroxypropyl)pyrimidine-4-carboxamide] had an EC50 in the assay with Z-138 cell line of more than 5 µM. In addition, the IC50 on PRMT5/MEP50 is 0.101 to 1 µM.
Taken in the same sequence, the figures for `CC(=O)N1CC(Nc2cc(C(=O)NC[C@H](O)CN3CCc4nc(N)sc4C3)ncn2)C1` [Compound 1-29] were more than 5 µM and 1 to 10 µM.
In turn, `CC(=O)N1CC(Nc2cc(C(=O)NC[C@H](O)CN3CCc4ncsc4C3)ncn2)C1` [Compound 1-17, (S)-6-((1-acetylazetidin-3-yl)amino)-N-(3-(6,7-dihydrothiazolo[5,4-c]pyridin-5(4H)-yl)-2-hydroxypropyl)pyrimidine-4-carboxamide] gave an EC50 in the assay on Z-138 cell line of more than 5 µM. In addition, the IC50 on PRMT5/MEP50 was more than 10 µM.
With `Nc1nc2c(s1)CCN(C[C@@H](O)CNC(=O)c1cc(NC3COC3)ncn1)C2` [Compound 1-20, (S)—N-(3-(2-amino-6,7-dihydrothiazolo[4,5-c]pyridin-5(4H)-yl)-2-hydroxypropyl)-6-(oxetan-3-ylamino)pyrimidine-4-carboxamide], the EC50 in the assay with Z-138 cell line was more than 5 µM. Further, at PRMT5/MEP50, the IC50 is more than 10 µM.
Consider `CC(=O)N1CCC(Nc2cc(C(=O)NC[C@H](O)CN3CCc4cnccc4C3)ccn2)CC1` [Compound 2-18], for which, in the assay with Z-138 cell line, the EC50 lay in the range of 0.101 to 1 µM. For the same molecule, at PRMT5/MEP50, the IC50 fell in the range of 0.101 to 1 µM.
In the assay with Z-138 cell line, `CC(=O)N1CCC(Nc2cc(C(=O)NC[C@H](O)CN3CCc4oc(C)nc4C3)ncn2)CC1` [Compound 4-3, (S)-6-((1-acetylpiperidin-4-yl)amino)-N-(2-hydroxy-3-(2-methyl-6,7-dihydrooxazolo[4,5-c]pyridin-5(4H)-yl)propyl)pyrimidine-4-carboxamide] registered an EC50 of more than 5 µM. In addition, the IC50 at PRMT5/MEP50 is more than 10 µM.
`CC(=O)N1CCC(Nc2cc(C(=O)NC[C@H](O)CN3CCc4nc(C)[nH]c4C3)ccn2)CC1` [Compound 3-54] came in with an EC50 in the assay on Z-138 cell line of more than 5 µM. Further, the IC50 on PRMT5/MEP50 was more than 10 µM.
As to `CC(=O)N1CCC(Nc2cc(C(=O)NC[C@H](O)CN3CCc4nn(C)cc4C3)ccn2)CC1` [Compound 3-53], the EC50 in the assay with Z-138 cell line was more than 5 µM. The IC50 at PRMT5/MEP50 was 1 to 10 µM.
For `CC(=O)N1CCC(Nc2cc(C(=O)NC[C@H](O)CN3CCc4nn(C)cc4C3)ncn2)CC1` [Compound 3-57], the EC50 in the assay with Z-138 cell line is more than 5 µM. In addition, on PRMT5/MEP50, the IC50 is more than 10 µM.
`CC(=O)N1CC(Nc2cc(C(=O)NC[C@H](O)CN3CCc4ncccc4C3)ncn2)C1` [Compound 2-9, (S)-6-((1-acetylazetidin-3-yl)amino)-N-(3-(7,8-dihydro-1,6-naphthyridin-6(5H)-yl)-2-hydroxypropyl)pyrimidine-4-carboxamide] returned an EC50 in the assay on Z-138 cell line of more than 5 µM. In addition, at PRMT5/MEP50, the IC50 lay in the range of 0.101 to 1 µM.
For `CC(=O)N1CC(Nc2cc(C(=O)NC[C@H](O)CN3CCc4cnccc4C3)ncn2)C1` [Compound 2-16], the EC50 in the assay with Z-138 cell line was more than 5 µM. Moreover, at PRMT5/MEP50, the IC50 was 0.101 to 1 µM.
As for `CC(=O)N1CCC(Nc2cc(C(=O)NC[C@H](O)CN3CCc4ncn(C)c4C3)ccn2)CC1` [Compound 3-24, (S)-2-((1-acetylpiperidin-4-yl)amino)-N-(2-hydroxy-3-(3-methyl-6,7-dihydro-3H-imidazo[4,5-c]pyridin-5(4H)-yl)propyl)isonicotinamide], in the assay on Z-138 cell line, the half-maximal effective concentration (EC50) was more than 5 µM. Moreover, on PRMT5/MEP50, the IC50 was more than 10 µM.
In the assay on Z-138 cell line, `CC(=O)N1CCC(Nc2cc(C(=O)NC[C@H](O)CN3CCc4sc(C)nc4C3)ncn2)CC1` [Compound 1-36] showed an EC50 of more than 5 µM. Besides, at PRMT5/MEP50, the IC50 was 1 to 10 µM.
For `CC(=O)N1CCC(Nc2cc(C(=O)NC[C@H](O)CN3CCc4c(cnn4C)C3)ccn2)CC1` [Compound 3-52] the same measures were more than 5 µM and 1 to 10 µM.
In the assay with Z-138 cell line, `CC(=O)N1CC(Nc2cc(C(=O)NC[C@H](O)CN3CCc4cccnc4C3)ncn2)C1` [Compound 2-13] showed a half-maximal effective concentration (EC50) of 1 to 10 µM. The IC50 at PRMT5/MEP50 was 0.101 to 1 µM.
For `O=C(COc1cccc2cccnc12)NCC(O)CN1CCc2cnccc2C1` (stereo not shown) [Compound 2-7, N-[2-hydroxy-3-(1,2,3,4-tetrahydro-2,6-naphthyridin-2-yl)propyl]-2-(quinolin-8-yloxy)acetamide] the same measures were more than 5 µM and 1 to 10 µM.
The molecule `O=C(NC[C@H](O)CN1CCc2ncsc2C1)c1cc(NC2COC2)ncn1` [Compound 1-16, (S)—N-(3-(6,7-dihydrothiazolo[5,4-c]pyridin-5(4H)-yl)-2-hydroxypropyl)-6-(oxetan-3-ylamino)pyrimidine-4-carboxamide] returned an EC50 in the assay on Z-138 cell line of more than 5 µM. The 50% inhibitory concentration (IC50) at PRMT5/MEP50 was more than 10 µM.
